Measurements as given in patent US7229635B2, “Pharmacotherapeutic process and composition for central nervous system disorders” (Indiana University Research and Technology Corporation, priority 2000, dated 2007).

What was measured:
[1] = tested on: kindled seizures (amygdala); settings: delivery of about 10^−6 to about 10^−12 M TRH to the brain; Example 3 and Chepournova et al.; cited from earlier work
rat hippocampal slices = assay: 50 mM [K+]-stimulated glutamate release from superfused hippocampal slices; assay type: cell-based; settings: for glutamate at 10 min. post stimulation: control 4.37±1.29, p<0.05; for peak 50 mM [K+]-stimulated glutamate release: control 48.05±8.59, p<0.001
Description: Enhanced excitatory amino acid release is suspected in pathways associated with seizures and excitotoxicity. In this regard, superfused hippocampal slices were used to investigate whether TRH could inhibit glutamate release in vitro. Rat hippocampi were removed and sliced transversely (500/μm) under low magnification. Slices were weighed, washed in cold saline, transferred to individual tissue chambers floated in a 37°/C. water bath, and were equilibrated in oxygenated (95% O2/5% CO2) Kreb's buffer (KRB) at 37° C. for 120 min. (0.5 ml/min). Slice chambers were then superfused 10 min. with KRB (control), or KRB containing 10 μM, 1 μM, or 0.1 μM TRH, respectively, prior to 5 min. stimulation with modified KRB (50 mM [K^+]±TRH). Fractions (1 min.) were collected during the 5 min. stimulation and for an additional 10 min. (0.5 ml/min.) thereafter, and analyzed for glutamate by HPLC.

Gαq/11 G-proteins = settings: sustained TRH exposure to its receptor; cited from earlier work

In the case of `NC(=O)[C@@H]1CCCN1C(=O)[C@H](Cc1cnc[nH]1)NC(=O)[C@@H]1CCC(=O)N1` [TRH, Thyrotropin-releasing hormone], the “effect in kindling studies” value [1] is listed as “anticonvulsant”, the “glutamate at 10 min. post stimulation” value (rat hippocampal slices; 0.1 μM TRH) is listed as 1.54±0.43 μMg/fraction and the “peak 50 mM [K+]-stimulated glutamate release” value (from here on “peak 50 mM”) (rat hippocampal slices; 0.1 μM TRH) is listed as 1.38±0.28 μMg/fraction. For the same molecule, the “glutamate at 10 min. post stimulation” value (rat hippocampal slices; 1 μM TRH) was 1.11±0.26 μMg/fraction, the “peak 50 mM” value (rat hippocampal slices; 1 μM TRH) was 1.54±0.33 μMg/fraction and the “glutamate at 10 min. post stimulation” value (rat hippocampal slices; 10 μM TRH) was 1.35±0.48 μMg/fraction. The “peak 50 mM” value (rat hippocampal slices; 10 μM TRH) was 2.35±0.50 μMg/fraction, the “effect on glutamate release by 50 mM [K+] stimulation given 15 min. later” value (rat hippocampal slices; perfusion (5 min.) with KRB+10 μM TRH, FIG. 6) was “significantly (p<0.05) blocked glutamate release” and the “reduction of Gαq/11 G-proteins” value (Gαq/11 G-proteins) was 20-70%.
